In ChEMBL document CHEMBL3421627, “Synthesis and biological evaluation of novel pyrazoline derivatives as potent anti-inflammatory agents” (Bioorg Med Chem Lett, 2015):
Activity calls are given as the source filed them. No cut-off for these calls is given here.

Legend:
RAW264.7 [1] = assay: Anti-inflammatory activity in mouse RAW264.7 cells assessed as inhibition of LPS-induced nitric oxide production at 10 uM pre-incubated for 2 hrs before LPS stimulation for 18 hrs by Griess reagent based colorimetric method; type: functional
Mus musculus [2] = assay: Anti-inflammatory activity in ICR mouse model of adjuvant-induced arthritis assessed as reduction in arthritis severity scores at 25 and 50 mg/kg, po dosed once daily from day 17 after vaccination; type: functional, organism-based; set-up: dose 50 mg/kg
Mus musculus [3] = assay: Anti-inflammatory activity in ICR mouse model of carrageenan-induced edema assessed as inhibition of paw thickness at 50 mg/kg, ip; type: functional; details: route intraperitoneal
RAW264.7 [4] = assay: Cytotoxicity against mouse RAW264.7 cells assessed as reduction in cell viability after 24 hrs in presence of LPS by MTT assay; type: cell-based; details: RAW264.7, 24 h
Mus musculus [5] = assay: Anti-inflammatory activity in ICR mouse model of carrageenan-induced edema assessed as inhibition of paw thickness at 25 mg/kg, ip; type: functional, organism-based; set-up: dose 25 mg/kg
[6] = target: T1, Nitric oxide synthase, inducible (Mus musculus, UniProt P29477); assay: Inhibition of iNOS in LPS-stimulated mouse RAW264.7 cells using L-Arginine substrate incubated for 2 hrs by fluorescence spectrometry; type: cell-based
T1 sequence (P29477 whole entry): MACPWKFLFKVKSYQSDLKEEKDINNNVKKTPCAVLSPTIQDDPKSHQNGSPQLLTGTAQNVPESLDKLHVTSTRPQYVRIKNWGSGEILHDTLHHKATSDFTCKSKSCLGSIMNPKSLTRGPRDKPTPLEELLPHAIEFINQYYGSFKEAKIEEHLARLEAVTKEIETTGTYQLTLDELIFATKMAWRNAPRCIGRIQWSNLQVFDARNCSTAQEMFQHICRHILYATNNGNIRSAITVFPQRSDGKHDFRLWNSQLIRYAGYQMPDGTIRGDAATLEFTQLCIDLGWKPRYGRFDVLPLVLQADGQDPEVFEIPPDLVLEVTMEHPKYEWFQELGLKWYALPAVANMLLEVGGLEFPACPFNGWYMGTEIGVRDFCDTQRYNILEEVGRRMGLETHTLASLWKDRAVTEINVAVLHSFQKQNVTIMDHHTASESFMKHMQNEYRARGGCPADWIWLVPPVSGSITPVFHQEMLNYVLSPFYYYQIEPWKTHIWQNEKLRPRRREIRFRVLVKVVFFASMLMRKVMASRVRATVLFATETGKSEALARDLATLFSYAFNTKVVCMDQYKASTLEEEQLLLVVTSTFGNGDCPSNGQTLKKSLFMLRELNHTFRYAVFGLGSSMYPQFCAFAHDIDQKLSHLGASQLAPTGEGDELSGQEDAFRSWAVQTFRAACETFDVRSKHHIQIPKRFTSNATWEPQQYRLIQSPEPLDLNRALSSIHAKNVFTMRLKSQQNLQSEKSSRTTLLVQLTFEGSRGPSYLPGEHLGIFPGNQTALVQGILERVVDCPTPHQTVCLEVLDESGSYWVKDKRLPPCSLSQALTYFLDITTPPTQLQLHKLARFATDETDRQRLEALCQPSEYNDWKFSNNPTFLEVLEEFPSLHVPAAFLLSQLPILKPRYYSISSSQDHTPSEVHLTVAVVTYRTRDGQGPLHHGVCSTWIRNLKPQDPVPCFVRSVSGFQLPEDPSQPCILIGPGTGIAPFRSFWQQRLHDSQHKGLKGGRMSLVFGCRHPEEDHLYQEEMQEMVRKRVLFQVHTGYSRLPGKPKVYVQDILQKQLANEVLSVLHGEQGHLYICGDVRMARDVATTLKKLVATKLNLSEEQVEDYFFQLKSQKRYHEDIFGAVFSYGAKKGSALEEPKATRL

RAW264.7 [7] = assay: Cytotoxicity against mouse RAW264.7 cells assessed as reduction in cell viability after 24 hrs in absence of LPS by MTT assay; type: cell-based; details: RAW264.7, 24 h
Mus musculus [8] = assay: Anti-inflammatory activity in ICR mouse model of adjuvant-induced arthritis assessed as reduction in histopathological changes at 50 mg/kg, po dosed once daily from day 17 after vaccination by H and E staining method; type: functional, organism-based; set-up: dose 50 mg/kg
Mus musculus [9] = assay: Anti-inflammatory activity in ICR mouse model of carrageenan-induced edema assessed as inhibition of paw thickness at 10 mg/kg, ip; type: functional; details: route intraperitoneal

COc1ccc(C2=NN(C(=O)c3ccccc3F)C(c3cc(OC)c(OC)c(OC)c3)C2)c2c1C=CC(C)(C)O2 (configuration not stated)
inhibition at 10 µM (RAW264.7 [1]): 27.8%

COc1ccc(C2=NN(C(=O)c3cccc(F)c3)C(c3cc(OC)c(OC)c(OC)c3)C2)c2c1C=CC(C)(C)O2 (configuration not stated)
inhibition at 10 µM (RAW264.7 [1]): 35.1%

COc1ccc(C2=NN(C(=O)c3ccc(C(F)(F)F)cc3)C(c3cc(OC)c(OC)c(OC)c3)C2)c2c1C=CC(C)(C)O2 (configuration not stated)
inhibition at 10 µM (RAW264.7 [1]): 23.1%

COc1ccc(C2=NN(C(=O)c3ccc(F)cc3)C(c3cc(OC)c(OC)c(OC)c3)C2)c2c1C=CC(C)(C)O2 (configuration not stated)
inhibition at 10 µM (RAW264.7 [1]): 17.5%

COc1ccc(C2=NN(C(=O)CCCl)C(c3cc(OC)c(OC)c(OC)c3)C2)c2c1C=CC(C)(C)O2 (configuration not stated)
inhibition at 10 µM (RAW264.7 [1]): 62.1%

COc1ccc(C2=NN(S(=O)(=O)c3ccc([N+](=O)[O-])cc3)C(c3cc(OC)c(OC)c(OC)c3)C2)c2c1C=CC(C)(C)O2 (configuration not stated)
inhibition at 10 µM (RAW264.7 [1]): 41%

COc1ccc(C2=NN(C(=O)C(C)C)C(c3cc(OC)c(OC)c(OC)c3)C2)c2c1C=CC(C)(C)O2 (configuration not stated)
inhibition at 10 µM (RAW264.7 [1]): 54.2%

COc1ccc(C2=NN(S(=O)(=O)c3ccc(F)cc3)C(c3cc(OC)c(OC)c(OC)c3)C2)c2c1C=CC(C)(C)O2 (configuration not stated)
inhibition at 10 µM (RAW264.7 [1]): 23.2%

COc1ccc(C2=NN(c3ccc([N+](=O)[O-])cc3)C(c3cc(OC)c(OC)c(OC)c3)C2)c2c1C=CC(C)(C)O2 (configuration not stated)
inhibition at 10 µM (RAW264.7 [1]): 15.7%

COc1ccc(C(=O)N2N=C(c3ccc(OC)c4c3OC(C)(C)C=C4)CC2c2cc(OC)c(OC)c(OC)c2)cc1 (configuration not stated)
inhibition (Mus musculus [2]): Dose-dependent effect | inhibition in vivo at 50 mg/kg (Mus musculus [3]): 54.2% | IC50 (RAW264.7 [4]): > 100 µM | inhibition (Mus musculus [5]): Active | IC50 [6]: 24.8 µM | IC50 (RAW264.7 [7]): > 100 µM | inhibition (Mus musculus [8]): Active | inhibition at 10 µM (RAW264.7 [1]): 78%

COc1ccc(C2=NN(C(C)=O)C(c3cc(OC)c(OC)c(OC)c3)C2)c2c1C=CC(C)(C)O2 (configuration not stated)
IC50 (RAW264.7 [4]): > 100 µM | IC50 [6]: 7.3 µM | IC50 (RAW264.7 [7]): > 100 µM | inhibition at 10 µM (RAW264.7 [1]): 89.8%

COc1ccc(C2=NN(C(=O)c3cccc(Cl)c3)C(c3cc(OC)c(OC)c(OC)c3)C2)c2c1C=CC(C)(C)O2 (configuration not stated)
inhibition at 10 µM (RAW264.7 [1]): 29.1%

COc1ccc(C2=NN(C(=O)c3ccc(Cl)cc3)C(c3cc(OC)c(OC)c(OC)c3)C2)c2c1C=CC(C)(C)O2 (configuration not stated)
inhibition at 10 µM (RAW264.7 [1]): 34.7%

COc1ccc(C2=NNC(c3cc(OC)c(OC)c(OC)c3)C2)c2c1C=CC(C)(C)O2 (configuration not stated)
inhibition at 10 µM (RAW264.7 [1]): 49.2%

CCS(=O)(=O)N1N=C(c2ccc(OC)c3c2OC(C)(C)C=C3)CC1c1cc(OC)c(OC)c(OC)c1 (configuration not stated)
inhibition at 10 µM (RAW264.7 [1]): 42.5%

COc1ccc(C2=NN(C(=O)c3cccc(C(F)(F)F)c3)C(c3cc(OC)c(OC)c(OC)c3)C2)c2c1C=CC(C)(C)O2 (configuration not stated)
inhibition at 10 µM (RAW264.7 [1]): 22.4%

CCCS(=O)(=O)N1N=C(c2ccc(OC)c3c2OC(C)(C)C=C3)CC1c1cc(OC)c(OC)c(OC)c1 (configuration not stated)
inhibition at 10 µM (RAW264.7 [1]): 40.8%

COc1ccc(C2=NN(C(=O)c3cc(OC)c(OC)c(OC)c3)C(c3cc(OC)c(OC)c(OC)c3)C2)c2c1C=CC(C)(C)O2 (configuration not stated)
inhibition at 10 µM (RAW264.7 [1]): 57.2%

COc1ccc(C2=NN(C(=O)c3ccccc3C(F)(F)F)C(c3cc(OC)c(OC)c(OC)c3)C2)c2c1C=CC(C)(C)O2 (configuration not stated)
inhibition at 10 µM (RAW264.7 [1]): 18.9%

COc1ccc(C2=NN(c3ccc(C#N)cc3)C(c3cc(OC)c(OC)c(OC)c3)C2)c2c1C=CC(C)(C)O2 (configuration not stated)
inhibition at 10 µM (RAW264.7 [1]): 40.8%

COc1ccc(C2=NN(c3ccc(C(F)(F)F)cc3)C(c3cc(OC)c(OC)c(OC)c3)C2)c2c1C=CC(C)(C)O2 (configuration not stated)
inhibition at 10 µM (RAW264.7 [1]): 14.4%

COc1ccc(C2=NN(S(=O)(=O)c3cc(C)cc(C)c3)C(c3cc(OC)c(OC)c(OC)c3)C2)c2c1C=CC(C)(C)O2 (configuration not stated)
inhibition at 10 µM (RAW264.7 [1]): 26.9%

COc1ccc(C2=NN(S(=O)(=O)C3CC3)C(c3cc(OC)c(OC)c(OC)c3)C2)c2c1C=CC(C)(C)O2 (configuration not stated)
inhibition at 10 µM (RAW264.7 [1]): 31.9%

CCC(=O)N1N=C(c2ccc(OC)c3c2OC(C)(C)C=C3)CC1c1cc(OC)c(OC)c(OC)c1 (configuration not stated)
inhibition at 10 µM (RAW264.7 [1]): 65.9%

COc1ccc(C2=NN(C(=O)CCl)C(c3cc(OC)c(OC)c(OC)c3)C2)c2c1C=CC(C)(C)O2 (configuration not stated)
IC50 (RAW264.7 [4]): 19.3 µM | IC50 [6]: 2.5 µM | IC50 (RAW264.7 [7]): 30.8 µM | inhibition at 10 µM (RAW264.7 [1]): 96.7%

COc1ccc(C2=NN(c3ccc(S(N)(=O)=O)cc3)C(c3cc(OC)c(OC)c(OC)c3)C2)c2c1C=CC(C)(C)O2 (configuration not stated)
inhibition at 10 µM (RAW264.7 [1]): 30.5%

COc1ccc(C2=NN(S(=O)(=O)c3ccc(C)cc3)C(c3cc(OC)c(OC)c(OC)c3)C2)c2c1C=CC(C)(C)O2 (configuration not stated)
inhibition at 10 µM (RAW264.7 [1]): 35.9%

COc1ccc2c(c1)c(CC(=O)O)c(C)n2C(=O)c1ccc(Cl)cc1 [INDOMETHACIN]
inhibition in vivo at 10 mg/kg (Mus musculus [9]): 32% | IC50 (RAW264.7 [4]): 9.2 µM | IC50 [6]: 4.5 µM | IC50 (RAW264.7 [7]): 10.7 µM | inhibition at 10 µM (RAW264.7 [1]): 60.6%

COc1ccc(C2=NN(c3ccc(C(=O)O)cc3)C(c3cc(OC)c(OC)c(OC)c3)C2)c2c1C=CC(C)(C)O2 (configuration not stated)
inhibition at 10 µM (RAW264.7 [1]): 19.4%

COc1ccc(C2=NN(c3ccc(F)cc3)C(c3cc(OC)c(OC)c(OC)c3)C2)c2c1C=CC(C)(C)O2 (configuration not stated)
inhibition at 10 µM (RAW264.7 [1]): 30.8%
